According to ChEMBL document CHEMBL3044807, “Synthesis and biological evaluation of new ozonides with improved plant growth regulatory activity” (2009):

How the values were obtained:
Assay type in all cases: functional
[1] = system: Ipomoea grandifolia; test: Phytotoxic activity against Ipomoea grandifolia assessed as weight of aerial parts at 5.0 x 10^-4 mol/l measured 21 days after seed sowing under greenhouse trials (reference value: 17.8 mg)
[2] = system: Ipomoea grandifolia; test: Phytotoxic activity against Ipomoea grandifolia assessed as aerial part growth inhibition at 5.0 x 10^-4 mol/l measured 21 days after seed sowing under greenhouse trials (reference value: 0.0%); settings: 504 h
[3] = system: Sorghum bicolor; test: Phytotoxic activity against Sorghum bicolor seedlings assessed as germination at 5x10'-4 mol/l at 28 +/-1 degC after 48 hr by acid-washed sand based radicle elongation assay (reference value: 100%)
[4] = system: Urochloa decumbens; test: Phytotoxic activity against Urochloa decumbens assessed as weight of aerial parts at 5.0 x 10^-4 mol/l measured 21 days after seed sowing under greenhouse trials (reference value: 22.0 mg)
[5] = system: Cucumis sativus; test: Phytotoxic activity against Cucumis sativus (cucumber) seedlings assessed as radicle length at 5x10'-4 mol/l at 28 +/-1 degC after 48 hr by acid-washed sand based radicle elongation assay (reference value: 4.8 cm)
[6] = system: Cucumis sativus; test: Phytotoxic activity against Cucumis sativus (cucumber) seedlings assessed as inhibition of radicle growth at 5x10'-4 mol/l at 28 +/-1 degC after 48 hr by acid-washed sand based radicle elongation assay (reference value: 0.0%)
[7] = system: Cucumis sativus; test: Phytotoxic activity against Cucumis sativus (cucumber) assessed as aerial part growth inhibition at 5.0 x 10^-4 mol/l measured 15 days after seed sowing under greenhouse trials (reference value: 0.0%); settings: 360 h
[8] = system: Sorghum bicolor; test: Phytotoxic activity against Sorghum bicolor seedlings assessed as inhibition of radicle growth at 5x10'-4 mol/l at 28 +/-1 degC after 48 hr by acid-washed sand based radicle elongation assay (reference value: 0.0%)
[9] = system: Sorghum bicolor; test: Phytotoxic activity against Sorghum bicolor assessed as aerial part growth inhibition at 5.0 x 10^-4 mol/l measured 15 days after seed sowing under greenhouse trials (reference value: 0.0%); settings: 360 h
[10] = system: Sorghum bicolor; test: Phytotoxic activity against Sorghum bicolor assessed as root growth inhibition at 5.0 x 10^-4 mol/l measured 15 days after seed sowing under greenhouse trials (reference value: 0.0%); settings: 360 h
[11] = system: Sorghum bicolor; test: Phytotoxic activity against Sorghum bicolor assessed as weight of roots at 5.0 x 10^-4 mol/l measured 15 days after seed sowing under greenhouse trials (reference value: 14.0 mg)
[12] = system: Sorghum bicolor; test: Phytotoxic activity against Sorghum bicolor seedlings assessed as radicle length at 5x10'-4 mol/l at 28 +/-1 degC after 48 hr by acid-washed sand based radicle elongation assay (reference value: 5.1 cm)
[13] = system: Cucumis sativus; test: Phytotoxic activity against Cucumis sativus (cucumber) seedlings assessed as germination at 5x10'-4 mol/l at 28 +/-1 degC after 48 hr by acid-washed sand based radicle elongation assay (reference value: 100%)
[14] = system: Cucumis sativus; test: Phytotoxic activity against Cucumis sativus (cucumber) assessed as weight of aerial parts at 5.0 x 10^-4 mol/l measured 15 days after seed sowing under greenhouse trials (reference value: 47.0 mg)
[15] = system: Ipomoea grandifolia; test: Phytotoxic activity against Ipomoea grandifolia assessed as root growth inhibition at 5.0 x 10^-4 mol/l measured 21 days after seed sowing under greenhouse trials (reference value: 0.0%); settings: 504 h
[16] = system: Cucumis sativus; test: Phytotoxic activity against Cucumis sativus (cucumber) assessed as root growth inhibition at 5.0 x 10^-4 mol/l measured 15 days after seed sowing under greenhouse trials (reference value: 0.0%); settings: 360 h
[17] = system: Urochloa decumbens; test: Phytotoxic activity against Urochloa decumbens assessed as weight of root at 5.0 x 10^-4 mol/l measured 21 days after seed sowing under greenhouse trials (reference value: 21.2 mg)
[18] = system: Urochloa decumbens; test: Phytotoxic activity against Urochloa decumbens assessed as aerial part growth inhibition at 5.0 x 10^-4 mol/l measured 21 days after seed sowing under greenhouse trials (reference value: 0.0%); settings: 504 h
[19] = system: Sorghum bicolor; test: Phytotoxic activity against Sorghum bicolor assessed as weight of aerial parts at 5.0 x 10^-4 mol/l measured 15 days after seed sowing under greenhouse trials (reference value: 19.0 mg)
[20] = system: Urochloa decumbens; test: Phytotoxic activity against Urochloa decumbens assessed as root growth inhibition at 5.0 x 10^-4 mol/l measured 21 days after seed sowing under greenhouse trials (reference value: 0.0%); settings: 504 h
[21] = system: Ipomoea grandifolia; test: Phytotoxic activity against Ipomoea grandifolia assessed as weight of root at 5.0 x 10^-4 mol/l measured 21 days after seed sowing under greenhouse trials (reference value: 18.4 mg)
[22] = system: Cucumis sativus; test: Phytotoxic activity against Cucumis sativus (cucumber) assessed as weight of roots at 5.0 x 10^-4 mol/l measured 15 days after seed sowing under greenhouse trials (reference value: 31.0 mg)

| SMILES | Activity [1] | inhibition at 500 µM [2] | germination % at 500 µM [3] | Activity [4] | Activity [5] | inhibition at 500 µM [6] | inhibition at 500 µM [7] | inhibition at 500 µM [8] | inhibition at 500 µM [9] | inhibition at 500 µM [10] | Activity [11] | Activity [12] | germination % at 500 µM [13] | Activity [14] | inhibition at 500 µM [15] | inhibition at 500 µM [16] | Activity [17] | inhibition at 500 µM [18] | Activity [19] | inhibition at 500 µM [20] | further results |
| --- | --- | --- | --- | --- | --- | --- | --- | --- | --- | --- | --- | --- | --- | --- | --- | --- | --- | --- | --- | --- | --- |
| O=C1C2CCCCC1C1OC2C2OOC1O2 | 9.6 mg | 46.5% | 96% | 12.3 mg | 1.5 cm | 68.5% | 27.5% | 59.7% | 45.1% | 26.4% | 10.3 mg | 2.1 cm | 100% | 34.1 mg | 53.6% | 77.8% | 8.3 mg | 44.1% | 10.4 mg | 60.2% | Activity [21]: 7.4 mg; Activity [22]: 6.9 mg |
| CCC12OC(C3OOC1O3)C1CCCCC2C1=O (mixture of isomers) | 9.4 mg | 47.7% | 100% | 5.7 mg | 2.1 cm | 57.2% | 48% | 52.5% | 45.4% | 27.1% | 10.2 mg | 2.4 cm | 96% | 24.4 mg | 43% | 75.2% | 4.6 mg | 74.4% | 10.3 mg | 77.9% | Activity [21]: 9.1 mg; Activity [22]: 7.7 mg |
| CC12OC(C)(C3OOC1O3)C1CCCCC2C1=O (mixture of isomers) | 6.2 mg | 65.4% | 100% | 4.4 mg | 1.5 cm | 69.1% | 43.8% | 47.1% | 53.9% | 18.2% | 11.5 mg | 2.7 cm | 100% | 26.4 mg | 64.6% | 79.7% | 3.6 mg | 79.7% | 8.8 mg | 83% | Activity [21]: 5.7 mg; Activity [22]: 6.3 mg |
